From patent publication US6759546B1, “3,5-di-iso-propyl-heptatrienoic acid derivatives having serum glucose reducing activity” (Allergan, Inc., priority 2003, dated 2004)
Changes are numbered by the printed parent chain. Where two headings read alike, the source gives them in different places.

What was measured:
RARα = target: T1, RARα (Homo sapiens, UniProt P10276); assay: ligand binding assay; details: read-out: RAR Bind. Ki α
T1 sequence (P10276 1-462): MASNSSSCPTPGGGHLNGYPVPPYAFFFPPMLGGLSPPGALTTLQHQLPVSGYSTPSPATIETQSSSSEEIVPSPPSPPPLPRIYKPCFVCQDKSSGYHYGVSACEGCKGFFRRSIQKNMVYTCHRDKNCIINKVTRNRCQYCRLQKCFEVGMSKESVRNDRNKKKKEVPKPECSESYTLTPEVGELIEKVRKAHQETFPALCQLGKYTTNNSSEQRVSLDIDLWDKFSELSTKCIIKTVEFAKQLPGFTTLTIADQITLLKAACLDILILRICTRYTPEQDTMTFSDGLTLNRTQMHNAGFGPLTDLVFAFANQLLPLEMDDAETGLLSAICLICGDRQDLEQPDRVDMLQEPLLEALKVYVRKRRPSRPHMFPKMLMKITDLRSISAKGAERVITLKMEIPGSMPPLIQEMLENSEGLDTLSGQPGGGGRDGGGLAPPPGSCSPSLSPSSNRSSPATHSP
Description: (§1) The results of the ligand binding assay are expressed in Ki numbers.

RARβ = target: T2, RARβ (Homo sapiens, UniProt P10826); assay: ligand binding assay; details: read-out: RAR Bind. Ki β
T2 sequence (P10826 1-455): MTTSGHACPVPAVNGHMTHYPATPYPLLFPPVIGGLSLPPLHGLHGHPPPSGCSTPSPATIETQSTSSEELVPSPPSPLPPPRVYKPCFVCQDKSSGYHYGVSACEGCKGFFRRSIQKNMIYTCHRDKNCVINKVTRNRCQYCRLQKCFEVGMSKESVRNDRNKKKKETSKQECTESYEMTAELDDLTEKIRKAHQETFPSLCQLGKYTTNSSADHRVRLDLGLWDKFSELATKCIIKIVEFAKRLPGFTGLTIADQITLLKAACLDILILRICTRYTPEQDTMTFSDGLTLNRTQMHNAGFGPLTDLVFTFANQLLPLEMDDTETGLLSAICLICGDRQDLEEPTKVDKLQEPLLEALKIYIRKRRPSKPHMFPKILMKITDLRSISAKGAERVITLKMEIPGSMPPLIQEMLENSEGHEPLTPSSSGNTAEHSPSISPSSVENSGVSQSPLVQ
Description: as §1

RARγ = target: T3, RARγ (Homo sapiens, UniProt P13631); assay: ligand binding assay; details: read-out: RAR Bind. Ki γ
T3 sequence (P13631 1-454): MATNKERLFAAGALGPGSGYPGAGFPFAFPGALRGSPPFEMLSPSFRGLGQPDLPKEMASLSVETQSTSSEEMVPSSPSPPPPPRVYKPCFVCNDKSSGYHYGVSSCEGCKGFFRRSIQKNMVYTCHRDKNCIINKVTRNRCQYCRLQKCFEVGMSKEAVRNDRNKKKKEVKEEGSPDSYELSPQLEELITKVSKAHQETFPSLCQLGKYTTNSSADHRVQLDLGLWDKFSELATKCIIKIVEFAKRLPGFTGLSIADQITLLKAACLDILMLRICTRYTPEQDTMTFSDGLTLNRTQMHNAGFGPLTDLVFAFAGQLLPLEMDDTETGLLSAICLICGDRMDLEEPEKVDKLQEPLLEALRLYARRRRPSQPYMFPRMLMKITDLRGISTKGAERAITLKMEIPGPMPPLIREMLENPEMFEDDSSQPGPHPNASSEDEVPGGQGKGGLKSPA
Description: as §1

RXRα [1] = target: T4, RXRα (Homo sapiens, UniProt P19793); assay: holoreceptor transactivation assay; assay type: cell-based; details: for EC50: holoreceptor assay, read-out: RXR Trans. EC50 α; for RXR Trans. efficacy α: percentage compared to the standard compound
T4 construct: expressed in transfected cells
T4 sequence (P19793 1-462): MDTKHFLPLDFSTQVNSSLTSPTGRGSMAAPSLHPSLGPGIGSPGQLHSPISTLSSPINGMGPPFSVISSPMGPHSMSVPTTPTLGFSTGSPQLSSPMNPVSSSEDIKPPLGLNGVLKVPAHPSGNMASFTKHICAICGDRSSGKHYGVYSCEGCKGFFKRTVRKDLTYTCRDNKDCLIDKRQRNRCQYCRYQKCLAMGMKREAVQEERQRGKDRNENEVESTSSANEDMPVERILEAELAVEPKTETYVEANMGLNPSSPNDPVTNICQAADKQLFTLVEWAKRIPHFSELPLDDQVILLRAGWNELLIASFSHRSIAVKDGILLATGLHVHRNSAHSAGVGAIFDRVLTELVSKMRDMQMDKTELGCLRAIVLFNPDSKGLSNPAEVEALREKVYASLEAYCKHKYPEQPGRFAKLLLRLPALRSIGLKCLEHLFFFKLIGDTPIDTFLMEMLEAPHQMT
Description: (§2) The results obtained in this assay are expressed in EC50 numbers, as they are also in the chimeric receptor transactivation assay.
(§3) Particularly, the transactivation data pertaining to activation of the RAR receptors were obtained in the chimeric assay, and the transactivation data pertaining to the activation of RXR receptors were obtained in the holoreceptor assay.

RXRα [2] = target: T4, RXRα; assay: ligand binding assay; details: read-out: RXR Bind. Ki α
Description: as §1

RXRβ [3] = target: T5, RXRβ (Homo sapiens, UniProt P28702); assay: ligand binding assay; details: read-out: RXR Bind. Ki β
T5 sequence (P28702 1-533): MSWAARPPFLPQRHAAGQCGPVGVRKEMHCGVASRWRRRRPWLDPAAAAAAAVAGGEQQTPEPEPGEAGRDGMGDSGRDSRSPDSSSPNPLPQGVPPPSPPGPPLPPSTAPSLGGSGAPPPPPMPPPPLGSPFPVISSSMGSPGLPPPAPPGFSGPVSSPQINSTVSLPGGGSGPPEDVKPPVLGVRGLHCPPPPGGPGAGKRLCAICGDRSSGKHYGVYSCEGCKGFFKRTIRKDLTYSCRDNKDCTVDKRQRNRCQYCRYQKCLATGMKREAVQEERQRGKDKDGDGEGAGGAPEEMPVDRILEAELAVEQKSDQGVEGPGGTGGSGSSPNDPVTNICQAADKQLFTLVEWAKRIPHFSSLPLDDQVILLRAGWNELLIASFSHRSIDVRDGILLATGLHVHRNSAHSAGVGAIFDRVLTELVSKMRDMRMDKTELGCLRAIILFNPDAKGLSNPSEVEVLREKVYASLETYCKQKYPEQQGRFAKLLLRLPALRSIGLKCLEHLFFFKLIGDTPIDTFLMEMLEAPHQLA
Description: as §1

[4] = system: female diabetic db/db mice; assay: serum glucose, triglyceride and thyroxine levels in db/db mice; assay type: in vivo; details: for Glucose Day 0 / Triglycerides Day 0: day 0 (pre-treatment)
Description: An assay described below tests the effect of compounds of the invention on serum glucose, tryglyceride and thyroxine levels in female 9-10 weeks old db/db mice.
Blood samples (70 μl) were taken by orbital bleeding at 11:00 AM on day 0 (pre-treatment), day 3, and day 6. On day 7, a blood sample (700 μl) was taken at 11:00 AM and the animals were sacrificed. Glucose, triglyceride and thyroxine (T4) levels were determined on a Boehringer Manheim Hatachi Clinical Chemistry Analyzer using standard protocols provided by the manufacturer and reagents that were supplied in commercially available kits (glucose and T4: Boehringer Manheim; triglycerides: Roche Diagnostics). Seven animals were treated in each group.

RXRβ [5] = target: T6, RXRβ (UniProt P28704); assay: holoreceptor transactivation assay
T6 sequence (P28704 1-520): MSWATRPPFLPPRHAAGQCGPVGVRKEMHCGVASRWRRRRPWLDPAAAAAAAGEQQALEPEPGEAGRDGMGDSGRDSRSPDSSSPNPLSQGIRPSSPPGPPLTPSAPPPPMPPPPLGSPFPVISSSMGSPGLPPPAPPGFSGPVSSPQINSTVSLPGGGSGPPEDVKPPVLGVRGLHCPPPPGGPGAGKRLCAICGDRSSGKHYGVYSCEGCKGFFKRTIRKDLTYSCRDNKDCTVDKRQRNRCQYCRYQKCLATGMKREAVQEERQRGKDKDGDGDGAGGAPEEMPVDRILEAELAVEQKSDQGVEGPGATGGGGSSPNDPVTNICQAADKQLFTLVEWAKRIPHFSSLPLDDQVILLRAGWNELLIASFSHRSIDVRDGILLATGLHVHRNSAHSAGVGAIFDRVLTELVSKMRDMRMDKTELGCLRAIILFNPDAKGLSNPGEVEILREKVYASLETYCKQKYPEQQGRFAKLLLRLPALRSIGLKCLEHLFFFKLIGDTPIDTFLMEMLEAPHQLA
Description: as §2, §3

RXRγ [6] = target: T7, RXRγ (UniProt P28705); assay: holoreceptor transactivation assay; details: percentage compared to the standard compound
T7 sequence (P28705 1-463): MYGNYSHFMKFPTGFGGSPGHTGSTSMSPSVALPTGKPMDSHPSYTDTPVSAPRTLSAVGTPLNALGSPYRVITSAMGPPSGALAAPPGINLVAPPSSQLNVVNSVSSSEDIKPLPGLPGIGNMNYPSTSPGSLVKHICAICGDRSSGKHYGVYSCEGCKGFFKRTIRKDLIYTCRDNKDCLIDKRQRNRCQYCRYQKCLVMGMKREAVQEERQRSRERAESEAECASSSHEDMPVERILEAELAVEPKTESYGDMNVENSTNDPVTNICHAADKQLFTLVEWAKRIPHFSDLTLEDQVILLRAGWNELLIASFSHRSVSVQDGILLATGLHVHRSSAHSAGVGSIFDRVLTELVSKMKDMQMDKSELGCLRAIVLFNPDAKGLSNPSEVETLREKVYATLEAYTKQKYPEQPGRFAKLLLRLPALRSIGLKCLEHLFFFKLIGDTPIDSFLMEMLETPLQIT
Description: as §2, §3

RXRγ [7] = target: T8, RXRγ (Homo sapiens, UniProt P48443); assay: ligand binding assay; details: read-out: RXR Bind. Ki γ
T8 sequence (P48443 1-463): T7 sequence (P28705 1-463) with T13A, F15Y, V31A, P34S, S228T, S230G, V258M, S450T
Description: as §1

[8] = Table 3, 50 mg/kg oral gavage daily
[9] = percentage compared to the standard compound
[10] = Table 2, 5 mg/kg oral gavage daily
[11] = Table 3, 5 mg/kg oral gavage daily
[12] = Table 2, 50 mg/kg oral gavage daily

CCCOc1c(\C(=C/C=C/C(C)=C/C(=O)O)CC)cc(C(C)C)cc1C(C)C [Compound 8, 7-(3,5-Diisopropyl-2-propoxy-phenyl)-3-methyl-nona-2,4,6-trienoic acid]
Ki (RARα): 170 nM | Ki (RARβ): 80 nM | Ki (RARγ): 310 nM | EC50 (RXRα [1]): 1 nM | RXR Trans. efficacy α (RXRα [1]): 33% | Ki (RXRα [2]): 1 nM | Ki (RXRβ [3]): 12 nM | Glucose Day 0 [4, 8]: 468 mg/dL | Triglycerides Day 0 [4, 8]: 173 mg/dL | Glucose Day 3, 3 h [4, 8]: 443 mg/dL | Triglycerides Day 3, 3 h [4, 8]: 278 mg/dL | Glucose Day 6, 3 h [4, 8]: 384 mg/dL | T4 Day 7 [4, 8]: 3.0 µg/dL | RXR Trans. efficacy β (RXRβ [5]; [9]): 29% | RXR Trans. efficacy γ (RXRγ [6]): 21%

CC(/C=C/[C@@H]1C[C@]1(C)c1ccc2c(c1)C(C)(C)CCC2(C)C)=C\C(=O)O [Standard compound]
RXR Trans. efficacy α (RXRα [1]): 100% | Glucose Day 0 [4, 10]: 378 mg/dL | Triglycerides Day 0 [4, 10]: 171 mg/dL | Glucose Day 3, 3 h [4, 10]: 308 mg/dL | Triglycerides Day 3, 3 h [4, 10]: 472 mg/dL | Glucose Day 6, 3 h [4, 10]: 333 mg/dL | T4 Day 7 [4, 10]: 1.2 µg/dL | Glucose Day 0 [4, 11]: 409 mg/dL | Triglycerides Day 0 [4, 11]: 193 mg/dL | Glucose Day 3, 3 h [4, 11]: 369 mg/dL | Triglycerides Day 3, 3 h [4, 11]: 50 mg/dL | Glucose Day 6, 3 h [4, 11]: 378 mg/dL | T4 Day 7 [4, 11]: 1.4 µg/dL | effect on serum thyroxine levels ([4]; diabetic mammals, summary in words): reducing serum thyroxine levels | RXR Trans. efficacy β (RXRβ [5]): 0.4 (100) 1%

CCCOc1c(\C(C)=C/C=C/C(C)=C/C(=O)O)cc(C(C)C)cc1C(C)C [Compound 16, 7-(3,5-Diisopropyl-2-propoxy-phenyl)-3-methyl-octa-2,4,6-trienoic acid]
Ki (RARα): 310 nM | Ki (RARβ): 200 nM | Ki (RARγ): 550 nM | EC50 (RXRα [1]): 0.4 nM | RXR Trans. efficacy α (RXRα [1]): 34% | Ki (RXRα [2]): 1 nM | Ki (RXRβ [3]): 12 nM | Ki (RXRγ [7]): 21 nM | Glucose Day 0 [4, 12]: 365 mg/dL | Triglycerides Day 0 [4, 12]: 199 mg/dL | Glucose Day 3, 3 h [4, 12]: 283 mg/dL | Triglycerides Day 3, 3 h [4, 12]: 189 mg/dL | Glucose Day 6, 3 h [4, 12]: 309 mg/dL | T4 Day 7 [4, 12]: 2.2 µg/dL | RXR Trans. efficacy β (RXRβ [5]; [9]): 33% | RXR Trans. efficacy γ (RXRγ [6]): 25%
